We go through 21 compounds from US11136329B2, “JAK inhibitors” (Vimalan Biosciences, Inc., priority 2019, dated 2021).

Format in all cases: biochemical
Test [1] addresses JAK1 (Homo sapiens (Human), UniProt P23458). The test can be described thus: JAK/TYK2 assay (Kinase Glo luminescence), JAK1. The following applies: 7.5 nM enzyme, 2 uM ATP, 30 uM IRS-1, 1 hr. Here is the method:
(§1) 10 mM test compound stock or 1 mM control compound stock (tofocitinib, ruxolitinib or staurosporine) in DMSO was diluted to 0.4 mM in DMSO. A 3-fold series dilution was then performed in DMSO to generate 10 different compound concentrations. The assay was carried out in 384-well white plate. 0.5 uL of 40× compound DMSO solution at different concentrations was mixed with 10 uL 2× enzyme prepared in reaction buffer (20 mM HEPES, 10 mM MgCl2, 0.01% Tween, 1 mM DTT, pH 7.5). 10 uL 2× substrate mixture prepared in reaction buffer was then added to start the reaction. A short spin was done to settle down all solutions to the bottom of the plate. Final concentrations of test compound in the reaction mixture were 10000, 3333, 1111, 370, 123, 41.2, 13.7, 4.57, 1.52and 0.51 nM. Concentrations of control compound were ten times less. Enzymatic reaction was conducted at 25° C. for 1-2 hours. 10 uL of Kinase Glo Reagents was added to stop the reaction and generate the luminescent signal which was measured using Envision. Luminescence signal was inversely related to kinase activity. […] The mixture without any compound was the positive control.
(In general: Kinase-Glo measures the ATP left after a reaction by luminescence.)

Test [2] has as its target JAK2 (Homo sapiens (Human), UniProt O60674). The test can be described thus: JAK/TYK2 assay (Kinase Glo luminescence), JAK2. To be noted: 0.8 nM enzyme, 2 uM ATP, 4 uM pEY, 1 hr. The protocol: as §1
In test [3] the target is JAK3 (Homo sapiens (Human), UniProt P52333). The experiment in a line: JAK/TYK2 assay (Kinase Glo luminescence), JAK3. To be noted: 1.5 nM enzyme, 2 uM ATP, 4 uM pEY, 1 hr. The protocol:
as §1

Test [4] has as its target TYK2 (Homo sapiens (Human), UniProt P29597). The test can be described thus: JAK/TYK2 assay (Kinase Glo luminescence), TYK2. To be noted: 9 nM enzyme, 2 uM ATP, 30 uM IRS-1, 1 hr. The protocol:
as §1

JAK1, sequence (P23458 whole entry, species assumed): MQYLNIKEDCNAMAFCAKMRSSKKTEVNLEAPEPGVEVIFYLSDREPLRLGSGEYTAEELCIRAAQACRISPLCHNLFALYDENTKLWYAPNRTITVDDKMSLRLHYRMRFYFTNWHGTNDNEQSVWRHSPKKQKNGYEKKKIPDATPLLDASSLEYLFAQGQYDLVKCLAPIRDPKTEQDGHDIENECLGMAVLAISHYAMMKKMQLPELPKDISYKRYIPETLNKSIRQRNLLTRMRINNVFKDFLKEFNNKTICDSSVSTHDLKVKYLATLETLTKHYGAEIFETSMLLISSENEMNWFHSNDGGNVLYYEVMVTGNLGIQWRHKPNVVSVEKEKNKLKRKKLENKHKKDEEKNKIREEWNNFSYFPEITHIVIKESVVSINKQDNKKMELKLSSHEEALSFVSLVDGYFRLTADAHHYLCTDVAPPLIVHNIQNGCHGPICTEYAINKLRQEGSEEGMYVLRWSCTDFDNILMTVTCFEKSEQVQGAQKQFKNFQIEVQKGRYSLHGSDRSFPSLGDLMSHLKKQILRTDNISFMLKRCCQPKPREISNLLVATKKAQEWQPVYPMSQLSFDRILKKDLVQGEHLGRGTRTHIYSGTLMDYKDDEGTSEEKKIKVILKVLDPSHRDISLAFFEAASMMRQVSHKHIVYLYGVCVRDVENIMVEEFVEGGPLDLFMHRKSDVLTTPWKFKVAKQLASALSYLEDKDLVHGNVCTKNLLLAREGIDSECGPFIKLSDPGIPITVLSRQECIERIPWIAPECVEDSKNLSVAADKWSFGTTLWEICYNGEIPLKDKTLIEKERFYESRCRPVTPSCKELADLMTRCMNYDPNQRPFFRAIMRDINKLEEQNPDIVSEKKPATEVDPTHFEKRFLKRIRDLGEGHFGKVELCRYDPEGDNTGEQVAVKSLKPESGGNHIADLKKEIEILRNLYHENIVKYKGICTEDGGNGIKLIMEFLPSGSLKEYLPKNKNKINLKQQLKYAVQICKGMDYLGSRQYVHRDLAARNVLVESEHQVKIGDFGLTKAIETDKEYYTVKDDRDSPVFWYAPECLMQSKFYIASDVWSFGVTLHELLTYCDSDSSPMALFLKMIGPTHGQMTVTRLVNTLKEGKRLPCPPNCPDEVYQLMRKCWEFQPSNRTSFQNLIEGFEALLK
JAK2, sequence (O60674 whole entry, species assumed): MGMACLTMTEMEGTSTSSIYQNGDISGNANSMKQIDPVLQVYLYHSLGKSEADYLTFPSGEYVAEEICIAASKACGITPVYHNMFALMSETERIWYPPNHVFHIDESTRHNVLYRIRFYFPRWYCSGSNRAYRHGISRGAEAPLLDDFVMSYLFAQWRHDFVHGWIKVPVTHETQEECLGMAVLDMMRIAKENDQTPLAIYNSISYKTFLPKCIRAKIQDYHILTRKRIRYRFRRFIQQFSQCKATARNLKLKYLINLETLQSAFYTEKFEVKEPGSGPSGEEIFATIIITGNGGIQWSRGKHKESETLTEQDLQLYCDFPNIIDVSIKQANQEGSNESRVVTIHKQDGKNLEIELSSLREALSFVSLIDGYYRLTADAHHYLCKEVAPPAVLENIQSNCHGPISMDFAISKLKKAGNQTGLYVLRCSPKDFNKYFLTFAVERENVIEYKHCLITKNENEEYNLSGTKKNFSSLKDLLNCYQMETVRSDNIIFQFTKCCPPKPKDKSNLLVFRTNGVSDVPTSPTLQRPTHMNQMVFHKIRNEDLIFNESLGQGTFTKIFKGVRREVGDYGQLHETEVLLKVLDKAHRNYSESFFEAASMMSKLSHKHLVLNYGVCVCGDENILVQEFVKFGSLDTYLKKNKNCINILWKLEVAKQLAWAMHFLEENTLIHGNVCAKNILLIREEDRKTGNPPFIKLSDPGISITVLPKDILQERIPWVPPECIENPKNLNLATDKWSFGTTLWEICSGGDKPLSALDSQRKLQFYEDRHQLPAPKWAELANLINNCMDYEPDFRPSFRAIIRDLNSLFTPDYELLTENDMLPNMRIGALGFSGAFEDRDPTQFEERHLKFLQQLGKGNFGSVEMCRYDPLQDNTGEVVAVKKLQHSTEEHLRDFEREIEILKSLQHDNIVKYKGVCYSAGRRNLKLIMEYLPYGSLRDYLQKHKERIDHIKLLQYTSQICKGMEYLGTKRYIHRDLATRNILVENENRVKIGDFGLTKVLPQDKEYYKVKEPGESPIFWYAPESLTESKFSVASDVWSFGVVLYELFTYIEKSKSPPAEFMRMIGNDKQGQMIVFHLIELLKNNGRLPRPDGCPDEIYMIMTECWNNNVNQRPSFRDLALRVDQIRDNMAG
JAK3, sequence (P52333 whole entry, species assumed): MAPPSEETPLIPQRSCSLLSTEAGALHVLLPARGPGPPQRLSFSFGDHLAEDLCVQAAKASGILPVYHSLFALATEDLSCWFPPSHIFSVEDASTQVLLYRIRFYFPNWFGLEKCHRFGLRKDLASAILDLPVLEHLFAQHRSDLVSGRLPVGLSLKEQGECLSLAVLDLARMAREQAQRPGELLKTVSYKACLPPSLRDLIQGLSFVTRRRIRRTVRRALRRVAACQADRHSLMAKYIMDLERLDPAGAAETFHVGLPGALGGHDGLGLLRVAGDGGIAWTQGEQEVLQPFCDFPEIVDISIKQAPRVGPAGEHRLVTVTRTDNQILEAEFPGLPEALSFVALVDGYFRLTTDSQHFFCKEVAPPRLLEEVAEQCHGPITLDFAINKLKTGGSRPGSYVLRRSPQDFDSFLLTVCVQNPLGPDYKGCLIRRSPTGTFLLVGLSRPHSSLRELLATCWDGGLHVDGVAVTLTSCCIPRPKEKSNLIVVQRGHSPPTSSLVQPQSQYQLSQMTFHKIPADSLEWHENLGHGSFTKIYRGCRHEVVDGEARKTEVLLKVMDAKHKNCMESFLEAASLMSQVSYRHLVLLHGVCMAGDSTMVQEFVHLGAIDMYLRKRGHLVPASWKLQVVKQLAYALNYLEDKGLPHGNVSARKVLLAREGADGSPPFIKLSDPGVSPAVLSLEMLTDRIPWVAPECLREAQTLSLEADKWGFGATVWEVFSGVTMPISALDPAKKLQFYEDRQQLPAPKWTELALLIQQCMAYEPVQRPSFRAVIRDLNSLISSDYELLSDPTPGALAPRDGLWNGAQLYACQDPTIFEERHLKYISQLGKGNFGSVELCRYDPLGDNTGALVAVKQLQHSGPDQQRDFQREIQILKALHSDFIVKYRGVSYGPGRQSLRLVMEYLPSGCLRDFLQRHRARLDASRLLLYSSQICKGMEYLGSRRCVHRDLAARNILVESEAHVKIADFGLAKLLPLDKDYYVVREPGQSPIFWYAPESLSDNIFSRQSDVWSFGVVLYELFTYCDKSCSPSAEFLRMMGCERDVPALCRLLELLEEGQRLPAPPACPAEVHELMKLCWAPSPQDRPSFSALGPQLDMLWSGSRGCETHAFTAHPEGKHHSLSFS
TYK2, sequence (P29597 whole entry, species assumed): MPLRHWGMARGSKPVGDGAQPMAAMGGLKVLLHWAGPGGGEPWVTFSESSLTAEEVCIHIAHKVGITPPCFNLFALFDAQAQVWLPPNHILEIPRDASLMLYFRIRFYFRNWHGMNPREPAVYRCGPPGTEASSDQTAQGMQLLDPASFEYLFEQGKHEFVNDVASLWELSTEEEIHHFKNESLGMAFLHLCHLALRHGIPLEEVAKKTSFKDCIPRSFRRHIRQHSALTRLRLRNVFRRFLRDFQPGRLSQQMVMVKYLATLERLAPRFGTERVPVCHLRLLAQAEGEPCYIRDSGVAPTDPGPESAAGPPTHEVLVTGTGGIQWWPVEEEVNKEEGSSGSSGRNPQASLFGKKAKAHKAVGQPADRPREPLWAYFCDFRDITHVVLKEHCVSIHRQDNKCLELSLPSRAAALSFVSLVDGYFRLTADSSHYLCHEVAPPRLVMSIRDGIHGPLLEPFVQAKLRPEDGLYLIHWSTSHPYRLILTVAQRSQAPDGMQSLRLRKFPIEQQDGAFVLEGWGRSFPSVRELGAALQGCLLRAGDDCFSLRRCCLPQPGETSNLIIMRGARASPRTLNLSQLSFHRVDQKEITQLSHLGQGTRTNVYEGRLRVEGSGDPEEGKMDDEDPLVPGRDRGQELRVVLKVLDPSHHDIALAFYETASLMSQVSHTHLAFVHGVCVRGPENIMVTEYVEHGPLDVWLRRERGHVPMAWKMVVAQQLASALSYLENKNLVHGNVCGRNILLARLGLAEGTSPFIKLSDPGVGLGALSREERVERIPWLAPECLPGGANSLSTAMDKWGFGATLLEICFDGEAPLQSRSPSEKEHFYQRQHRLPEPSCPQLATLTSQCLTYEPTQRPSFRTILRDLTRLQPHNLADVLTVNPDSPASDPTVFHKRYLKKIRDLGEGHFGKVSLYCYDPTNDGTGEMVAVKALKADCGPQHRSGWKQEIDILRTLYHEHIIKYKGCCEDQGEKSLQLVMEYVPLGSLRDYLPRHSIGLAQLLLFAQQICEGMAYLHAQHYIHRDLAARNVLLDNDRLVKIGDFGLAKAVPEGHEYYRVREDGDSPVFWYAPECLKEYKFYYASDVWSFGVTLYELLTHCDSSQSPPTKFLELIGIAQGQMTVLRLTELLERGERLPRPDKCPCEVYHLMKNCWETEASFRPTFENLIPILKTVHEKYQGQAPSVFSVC

As usually defined, the IC50 is the concentration at which inhibition is half-maximal. Read a high IC50 as a need for much substance. For the compound `CCOC(=O)Cn1cc(Nc2ncc3ccn(C[C@H]4CC[C@H](O)CC4)c3n2)cn1` [Compound 51, ethyl 2-(4-((7-(((1r,4r)-4-hydroxycyclohexyl)methyl)-7H-pyrrolo[2,3-d]pyrimidin-2-yl)amino)-1H-pyrazol-1-yl)acetate], the IC50 in test [1], in test [2], in test [3] and in test [4] was under 100 nM throughout.
Consider `CCOC(=O)Cn1cc(Nc2ncc3ccn(C[C@H]4CC[C@@H](O)CC4)c3n2)cn1` [Compound 52, ethyl 2-(4-((7-(((1s,4s)-4-hydroxycyclohexyl)methyl)-7H-pyrrolo[2,3-d]pyrimidin-2-yl)amino)-1H-pyrazol-1-yl)acetate], for which the IC50 in test [1] was 100 to 1000 nM; in test [2], under 100 nM; in test [3] it was under 100 nM; in test [4] it was under 100 nM.
On to `CCOC(=O)Cn1cc(Nc2ncc3ccn(Cc4csc(C)n4)c3n2)cn1` [Compound 55, ethyl 2-(4-((7-((2-methylthiazol-4-yl)methyl)-7H-pyrrolo[2,3-d]pyrimidin-2-yl)amino)-1H-pyrazol-1-yl)acetate], for which the IC50 is 100 to 1000 nM in test [1], under 100 nM in test [2], under 100 nM in test [3] and 100 to 1000 nM in test [4].
For `CCOC(=O)Cn1cc(Nc2ncc3ccn(CC(CC)CO)c3n2)cn1` (stereo not drawn) [Compound 65, ethyl 2-(4-((7-(2-(hydroxymethyl)butyl)-7H-pyrrolo[2,3-d]pyrimidin-2-yl)amino)-1H-pyrazol-1-yl)acetate], the IC50 in test [1], in test [2], in test [3] and in test [4] was under 100 nM each time.
For `CCOC(=O)Cn1cc(Nc2ncc3ccn(CC(CC)CC#N)c3n2)cn1` (stereo not drawn) [Compound 70, ethyl 2-(4-((7-(2-(cyanomethyl)butyl)-7H-pyrrolo[2,3-d]pyrimidin-2-yl)amino)-1H-pyrazol-1-yl)acetate], the IC50 in test [1], in test [2], in test [3] and in test [4] was under 100 nM in each case.
On to `CC[C@H](Cn1ccc2cnc(Nc3cnn(C4CCOC4=O)c3)nc21)C(C)C` (stereo partly drawn) [Compound 82, 3-(4-((7-((S)-2-ethyl-3-methylbutyl)-7H-pyrrolo[2,3-d]pyrimidin-2-yl)amino)-1H-pyrazol-1-yl)dihydrofuran-2(3H)-one], for which the IC50 in test [1], in test [2], in test [3] and in test [4] was under 100 nM in each case.
In the case of `CC[C@H](Cn1ccc2cnc(Nc3cnn([C@@H]4CCOC4=O)c3)nc21)C(C)C` [Compound 82A, (R)-3-(4-((7-((S)-2-ethyl-3-methylbutyl)-7H-pyrrolo[2,3-d]pyrimidin-2-yl)amino)-1H-pyrazol-1-yl)dihydrofuran-2(3H)-one], the IC50 in test [1], in test [2], in test [3] and in test [4] was under 100 nM throughout.
As to `CC[C@H](Cn1ccc2cnc(Nc3cnn([C@H]4CCOC4=O)c3)nc21)C(C)C` [Compound 82B, (S)-3-(4-((7-((S)-2-ethyl-3-methylbutyl)-7H-pyrrolo[2,3-d]pyrimidin-2-yl)amino)-1H-pyrazol-1-yl)dihydrofuran-2(3H)-one], the IC50 in test [1], in test [2], in test [3] and in test [4] was under 100 nM each time.
Consider `CCC(Cn1ccc2cnc(Nc3cnn(CC(=O)OC(C)C)c3)nc21)C(C)C` (stereo not drawn) [Compound 83, isopropyl 2-(4-((7-(2-ethyl-3-methylbutyl)-7H-pyrrolo[2,3-d]pyrimidin-2-yl)amino)-1H-pyrazol-1-yl)acetate], for which the IC50 in test [1], in test [2], in test [3] and in test [4] was under 100 nM throughout.
Turning to `CCCCOC(=O)Cn1cc(Nc2ncc3ccn(CC(CC)C(C)C)c3n2)cn1` (stereo not drawn) [Compound 84, butyl 2-(4-((7-(2-ethyl-3-methylbutyl)-7H-pyrrolo[2,3-d]pyrimidin-2-yl)amino)-1H-pyrazol-1-yl)acetate], the IC50 in test [1], in test [2], in test [3] and in test [4] was under 100 nM in each case.
Take `CCC(Cn1ccc2cnc(Nc3cnn(CC(=O)OCCO)c3)nc21)C(C)C` (stereo not drawn) [Compound 85, 2-hydroxyethyl 2-(4-((7-(2-ethyl-3-methylbutyl)-7H-pyrrolo[2,3-d]pyrimidin-2-yl)amino)-1H-pyrazol-1-yl)acetate]: the IC50 in test [1], in test [2], in test [3] and in test [4] was under 100 nM throughout.
As to `CCOCCOC(=O)Cn1cc(Nc2ncc3ccn(CC(CC)C(C)C)c3n2)cn1` (stereo not drawn) [Compound 86, 2-ethoxyethyl 2-(4-((7-(2-ethyl-3-methylbutyl)-7H-pyrrolo[2,3-d]pyrimidin-2-yl)amino)-1H-pyrazol-1-yl)acetate], the IC50 in test [1], in test [2], in test [3] and in test [4] was under 100 nM in each case.
Regarding `CC(C)C(Cn1ccc2cnc(Nc3cnn(CC(=O)O)c3)nc21)C(C)C` [Compound 87, 2-(4-((7-(2-isopropyl-3-methylbutyl)-7H-pyrrolo[2,3-d]pyrimidin-2-yl)amino)-1H-pyrazol-1-yl)acetic acid], the IC50 in test [1], in test [2], in test [3] and in test [4] was under 100 nM in each case.
With `CC(C)C(Cn1ccc2cnc(Nc3cnn(CC(=O)OCCO)c3)nc21)C(C)C` [Compound 88, 2-hydroxyethyl 2-(4-((7-(2-isopropyl-3-methylbutyl)-7H-pyrrolo[2,3-d]pyrimidin-2-yl)amino)-1H-pyrazol-1-yl)acetate], the IC50 in test [1], in test [2], in test [3] and in test [4] was under 100 nM in each case.
Regarding `CCC(CC)Cn1ccc2cnc(Nc3cnn(CC(=O)OCCC#N)c3)nc21` [Compound 89, 2-cyanoethyl 2-(4-((7-(2-ethylbutyl)-7H-pyrrolo[2,3-d]pyrimidin-2-yl)amino)-1H-pyrazol-1-yl)acetate], the IC50 in test [1], in test [2], in test [3] and in test [4] was under 100 nM in each case.
As to `CCC(CC)Cn1ccc2cnc(Nc3cnn(CC(=O)OCCO)c3)nc21` [Compound 90, 2-hydroxyethyl 2-(4-((7-(2-ethylbutyl)-7H-pyrrolo[2,3-d]pyrimidin-2-yl)amino)-1H-pyrazol-1-yl)acetate], the IC50 in test [1], in test [2], in test [3] and in test [4] was under 100 nM each time.
For the compound `CCC(CC)Cn1ccc2cnc(Nc3cnn(CC(=O)OC4CC(C#N)C4)c3)nc21` (stereo not drawn) [Compound 91, 3-cyanocyclobutyl 2-(4-((7-(2-ethylbutyl)-7H-pyrrolo[2,3-d]pyrimidin-2-yl)amino)-1H-pyrazol-1-yl)acetate], the IC50 in test [1], in test [2], in test [3] and in test [4] was under 100 nM in each case.
On to `CCC(Cn1ccc2cnc(Nc3cnn(CC(=O)OCCC#N)c3)nc21)C(C)C` (stereo not drawn) [Compound 92, 2-cyanoethyl 2-(4-((7-(2-ethyl-3-methylbutyl)-7H-pyrrolo[2,3-d]pyrimidin-2-yl)amino)-1H-pyrazol-1-yl)acetate], for which the IC50 in test [1], in test [2], in test [3] and in test [4] was under 100 nM in each case.
Consider `CCC(CC)Cn1ccc2cnc(Nc3cnn(CC(=O)OC(C)C)c3)nc21` [Compound 93, isopropyl 2-(4-((7-(2-ethylbutyl)-7H-pyrrolo[2,3-d]pyrimidin-2-yl)amino)-1H-pyrazol-1-yl)acetate], for which the IC50 in test [1], in test [2], in test [3] and in test [4] was under 100 nM each time.
Take `CC(C)OC(=O)Cn1cc(Nc2ncc3ccn(CC(C(C)C)C(C)C)c3n2)cn1` [Compound 94, isopropyl 2-(4-((7-(2-isopropyl-3-methylbutyl)-7H-pyrrolo[2,3-d]pyrimidin-2-yl)amino)-1H-pyrazol-1-yl)acetate]: the IC50 in test [1], in test [2], in test [3] and in test [4] was under 100 nM in each case.
Consider `CC(C)OC(=O)Cn1cc(Nc2ncc3ccn(C[C@@H](CCN(C)C)C(C)C)c3n2)cn1` [Compound 96, isopropyl (S)-2-(4-((7-(4-(dimethylamino)-2-isopropylbutyl)-7H-pyrrolo[2,3-d]pyrimidin-2-yl)amino)-1H-pyrazol-1-yl)acetate], for which the IC50 in test [1], in test [2], in test [3] and in test [4] was 100 to 1000 nM each time.
